# Assay results as given in ChEMBL document CHEMBL1201862, “PubChem BioAssay data set” (2004).
# Structures can show the parent of a compound that is named as a salt. Calls of active or inactive are those of the source.
# Key:
# [1] = HeLa 4N DNA content increase, dose response, cell-based, IC50 (AID 1117351); type: functional
# [2] = target: UDP-galactopyranose mutase (Mycobacterium tuberculosis, UniProt P9WIQ1); test: Inhibitors of Mycobacterium tuberculosis UDP-galactopyranose mutase (UGM) enzyme Measured in Biochemical System Using Plate Reader - 2105-02_Inhibitor_Dose_CherryPick_Activity. [Related pubchem assays (depositor defined):AID504439]
# [3] = cytotoxicity in HEK-293T cells, dose response, cytotoxicity control for TCR NF-kB inhibitor project, luminescence, T-cell screen hits (AID 489026); type: functional, cell-based;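 also: cells exposed to compound about 14 hours before the viability readout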
# P388 = test: cells; type: functional; conditions: Mus musculus
# [4] = cytotoxicity toward HT-29 cells – cell-based, CellTiter-Glo luminescence, IC50, dose response (AID 1117330); type: functional
# [5] = HeLa 2N DNA content increase, dose response, cell-based, IC50 (AID 1117349); type: functional
# [6] = cytotoxicity toward DRD oncogenic fibroblasts, dose response, cell-based, non-viral oncogenic, luminescence (AID 1934); type: functional; conditions: Homo sapiens
# Paired box protein Pax-8 = Paired box protein Pax-8 (Homo sapiens, UniProt Q06710); test: inhibitors of PAX8-driven TPO luciferase reporter, dose response, RMG-I cells, cherry-pick (AID 687027); type: functional, cell-based;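 also: luciferase reporter driven by Pax8 target thyroperoxidase promoter measured by SteadyGlo luminescence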
# [7] = Concentration-dependent survival of SW480 colon cancer line, luminescence detection with CellTiter-Glo, half-maximal inhibitory concentration (AID 1117338); type: functional
# [8] = CellTiter-Glo luminescent dose response of DLD-1 viability loss (AID 1117352); type: functional
# Insulin-degrading enzyme [9] = target: T1, Insulin-degrading enzyme (Homo sapiens, UniProt P14735); test: activators of endogenous IDE in HEK cells, dose response, cell-based, fluorescence polarization (AID 588439); type: functional
# T1 sequence (P14735 whole entry): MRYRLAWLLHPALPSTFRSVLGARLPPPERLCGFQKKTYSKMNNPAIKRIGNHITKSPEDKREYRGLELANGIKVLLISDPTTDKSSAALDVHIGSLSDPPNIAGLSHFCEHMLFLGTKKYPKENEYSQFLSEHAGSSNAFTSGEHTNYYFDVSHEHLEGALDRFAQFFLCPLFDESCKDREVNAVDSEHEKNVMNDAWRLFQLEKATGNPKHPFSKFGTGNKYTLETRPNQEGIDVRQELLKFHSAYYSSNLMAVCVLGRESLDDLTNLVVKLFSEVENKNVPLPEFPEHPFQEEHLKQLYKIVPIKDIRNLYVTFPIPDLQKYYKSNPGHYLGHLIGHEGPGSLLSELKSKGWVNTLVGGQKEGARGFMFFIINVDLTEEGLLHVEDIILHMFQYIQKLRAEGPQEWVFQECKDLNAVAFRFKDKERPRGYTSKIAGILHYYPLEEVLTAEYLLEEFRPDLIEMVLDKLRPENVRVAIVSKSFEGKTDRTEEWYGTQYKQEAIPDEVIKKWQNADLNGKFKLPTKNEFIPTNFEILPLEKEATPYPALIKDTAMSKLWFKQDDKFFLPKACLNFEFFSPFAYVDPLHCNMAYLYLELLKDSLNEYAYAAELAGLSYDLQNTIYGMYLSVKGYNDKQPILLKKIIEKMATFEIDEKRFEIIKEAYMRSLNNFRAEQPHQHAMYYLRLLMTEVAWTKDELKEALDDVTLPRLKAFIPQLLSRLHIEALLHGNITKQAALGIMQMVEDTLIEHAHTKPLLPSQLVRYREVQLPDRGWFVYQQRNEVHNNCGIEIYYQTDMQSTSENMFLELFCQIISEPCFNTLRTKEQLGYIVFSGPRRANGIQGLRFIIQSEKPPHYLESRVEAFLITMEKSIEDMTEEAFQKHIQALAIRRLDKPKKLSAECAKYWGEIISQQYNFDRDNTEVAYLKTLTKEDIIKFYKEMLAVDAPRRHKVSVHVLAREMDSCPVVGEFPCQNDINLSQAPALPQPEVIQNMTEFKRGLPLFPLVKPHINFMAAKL
# HeLa = test: HeLa cell cytotoxicity, dose response, cytotoxicity control, 24 h, cherry-picked samples (AID 504726); type: functional, cell-based; conditions: Homo sapiens;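 also: potency for cytotoxicity as loss of luminescence signal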
# BJ [10] = test: cytotoxicity toward BJ-TERT fibroblasts, dose response, cell-based, RAS-independent, luminescence (AID 1933); type: functional; conditions: Homo sapiens
# ORF 73 = ORF 73 (Human herpesvirus 8, UniProt O40947); test: inhibitors of C-LANA binding to LBS DNA, dose response, biochemical, fluorescence polarization, cherry-picked samples (AID 504725); set-up: species or system Human gammaherpesvirus 8;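 also: fluorescence polarization of a labeled DNA duplex reporting LANA DNA binding; potency is for inhibitors that block LANA binding to the DNA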
# P388/ADR = test: cells; type: functional; conditions: Mus musculus
# HEK293 [11] = test: optical interference in Abeta FP readout, dose response, artefact control for IDE activator project, biochemical, fluorescence polarization (AID 588442); type: functional, cell-based; conditions: Homo sapiens
# BJ [12] = test: cytotoxicity toward BJ-TERT-LT-ST fibroblasts, dose response, cell-based, RAS-independent, luminescence (AID 1935); type: functional; conditions: Homo sapiens;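 also: BJ fibroblasts immortalized with TERT plus LT and ST oncogenes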
# BJ [13] = test: cytotoxicity toward Ras-transformed BJeLR fibroblasts, dose response, cell-based, alamar blue fluorescence, cherrypicked samples (AID 2631); type: functional; conditions: Homo sapiens;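 also: confirmatory dose-response assay in RAS-dependent BJ fibroblasts engineered with TERT, LT and ST, with cytotoxicity read by fluorescence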
# Keap1/Nrf2 = Keap1/Nrf2 (Homo sapiens, UniProt Q14145); test: Keap1-Nrf2 protein-protein interaction inhibitors, dose response, biochemical, fluorescence polarization, cherry-picked samples (AID 588683)
# Insulin-degrading enzyme [14] = target: T1, Insulin-degrading enzyme; test: activators of recombinant IDE enzyme, dose response, counter-screen for IDE activator project, biochemical, fluorescence polarization (AID 588681)
# BJ [15] = test: cells; type: functional, cell-based; conditions: Homo sapiens
# [16] = HCT116 cell viability decrease, GSK3B pretreatment – CellTiter-Glo, IC50, dose response (AID 1117339); type: functional; conditions: HCT-116
# SN12K1 = test: cells; type: functional; conditions: Homo sapiens
# [17] = SNU-C1 cell viability reduction, dose response, CellTiter-Glo luminescence (AID 1117323); type: functional, cell-based
# [18] = RKO cell viability reduction, dose response, CellTiter-Glo luminescence (AID 1117322); type: functional
# [19] = cytotoxicity toward HCT116 cells – cell-based, CellTiter-Glo luminescence, IC50, dose response (AID 1117332); type: functional; conditions: HCT-116
# HEK293 [20] = test: HEK cell cytotoxicity by LDH release, dose response, cytotoxicity control for IDE activator project, fluorescence, HEK cells (AID 588440); type: functional, cell-based; conditions: Homo sapiens;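 also: cytotoxicity by LDH release measuring loss of membrane integrity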
# Jurkat = test: antigen receptor-induced NF-kB inhibitors, dose response, Jurkat, luciferase reporter, luminescence, B- and T-cell (AID 489004); type: functional, cell-based; conditions: Homo sapiens;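 also: NF-kB luciferase reporter Jurkat cells stimulated with PMA plus ionomycin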
# [21] = HepG2 cell cytotoxicity, dose response, cytotoxicity control for Shn3 inhibitor project, CellTiter-Glo, cherry-picked (AID 624134); type: functional, cell-based
# [22] = Shn3 3'UTR reporter inhibitors, dose response, cell-based, Clone20 osteoblasts, firefly luciferase, cherry-picked (AID 624132); type: functional;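 also: firefly luciferase luminescence from reporter carrying the Shn3 3'UTR in osteoblasts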
# INS1 = test: beta cell apoptosis inhibitors, cytokine rescue, dose response, luminescence, retest (AID 449756); type: functional, cell-based; conditions: Rattus norvegicus;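 also: cell death triggered by IL-1 beta plus TNF-alpha plus IFN-gamma mixture; protective hits raise ATP signal compared with cytokine alone wells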
# Galanin receptor type 3 = Galanin receptor type 3 (Homo sapiens, UniProt O60755); test: Fluorescence-based cell-based primary high throughput dose response assay to identify antagonists of the Galanin Receptor 3 (GalR3).; type: functional
# [23] = control 3'UTR Renilla luciferase suppression, dose response, counter-screen for Shn3 inhibitor project, cell-based, Clone20-Shn3RL, cherry-picked (AID 624133); type: functional
# Galanin receptor type 2 = Galanin receptor type 2 (Homo sapiens, UniProt O43603); test: Dose Response cell-based high-throughput screening assay to identify antagonists of galanin receptor 2 (GALR2). [Related pubchem assays: 828, 866 ]; type: functional
# [24] = cytotoxicity in HEK-293T NF-kB-Luc cells, dose response, cytotoxicity control for B/T-cell NF-kB inhibitor project, cell-based, uHTS hits (AID 489019); type: functional;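 also: IC50 reflects cytotoxicity as loss of cell viability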
# cells = type: functional, cell-based; conditions: HEK-CNG
# Sequence of Galanin receptor type 2 (O43603 whole entry): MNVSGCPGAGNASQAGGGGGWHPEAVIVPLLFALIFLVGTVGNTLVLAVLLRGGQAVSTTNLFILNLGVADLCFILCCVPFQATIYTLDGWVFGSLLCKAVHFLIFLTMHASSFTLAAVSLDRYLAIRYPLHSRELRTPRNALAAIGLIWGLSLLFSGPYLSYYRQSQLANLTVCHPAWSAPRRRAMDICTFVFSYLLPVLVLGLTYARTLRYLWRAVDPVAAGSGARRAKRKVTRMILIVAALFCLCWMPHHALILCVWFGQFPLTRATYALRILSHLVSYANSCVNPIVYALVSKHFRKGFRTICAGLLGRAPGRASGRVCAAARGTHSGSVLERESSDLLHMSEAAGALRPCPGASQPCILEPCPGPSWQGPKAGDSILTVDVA
# Sequence of UDP-galactopyranose mutase (P9WIQ1 whole entry): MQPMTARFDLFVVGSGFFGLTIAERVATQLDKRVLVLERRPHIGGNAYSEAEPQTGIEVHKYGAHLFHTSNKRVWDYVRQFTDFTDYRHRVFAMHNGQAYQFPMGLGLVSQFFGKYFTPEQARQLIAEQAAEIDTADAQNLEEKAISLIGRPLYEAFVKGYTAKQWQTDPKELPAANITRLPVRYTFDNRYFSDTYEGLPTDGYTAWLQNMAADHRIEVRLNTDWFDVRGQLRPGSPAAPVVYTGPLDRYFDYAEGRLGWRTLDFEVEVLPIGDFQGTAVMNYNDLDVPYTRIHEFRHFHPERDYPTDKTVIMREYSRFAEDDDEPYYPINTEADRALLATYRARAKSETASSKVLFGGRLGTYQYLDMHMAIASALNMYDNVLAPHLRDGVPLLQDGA
# Sequence of Galanin receptor type 3 (O60755 whole entry): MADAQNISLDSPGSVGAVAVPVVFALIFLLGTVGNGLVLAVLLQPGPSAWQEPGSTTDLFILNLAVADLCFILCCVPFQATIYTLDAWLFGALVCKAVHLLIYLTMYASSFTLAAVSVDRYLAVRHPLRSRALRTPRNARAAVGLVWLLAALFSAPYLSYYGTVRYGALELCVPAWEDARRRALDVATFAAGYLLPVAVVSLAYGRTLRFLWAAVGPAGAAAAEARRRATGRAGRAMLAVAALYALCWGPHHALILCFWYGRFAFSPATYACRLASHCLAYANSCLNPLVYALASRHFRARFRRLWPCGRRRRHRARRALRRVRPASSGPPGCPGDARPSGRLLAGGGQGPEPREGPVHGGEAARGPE
# Sequence of Paired box protein Pax-8 (Q06710 whole entry): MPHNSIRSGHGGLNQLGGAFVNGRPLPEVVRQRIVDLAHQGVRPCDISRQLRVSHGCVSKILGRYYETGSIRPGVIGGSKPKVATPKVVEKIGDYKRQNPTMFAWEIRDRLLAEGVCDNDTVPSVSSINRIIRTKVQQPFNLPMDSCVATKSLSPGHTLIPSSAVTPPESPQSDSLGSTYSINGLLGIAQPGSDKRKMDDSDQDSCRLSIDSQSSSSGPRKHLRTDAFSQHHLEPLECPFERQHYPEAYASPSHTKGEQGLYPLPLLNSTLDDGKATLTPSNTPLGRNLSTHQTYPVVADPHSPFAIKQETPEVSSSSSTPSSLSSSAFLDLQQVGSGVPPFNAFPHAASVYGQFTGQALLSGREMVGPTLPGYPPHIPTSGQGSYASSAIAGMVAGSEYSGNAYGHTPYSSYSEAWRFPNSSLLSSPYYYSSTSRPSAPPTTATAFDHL
# Sequence of ORF 73 (O40947 whole entry): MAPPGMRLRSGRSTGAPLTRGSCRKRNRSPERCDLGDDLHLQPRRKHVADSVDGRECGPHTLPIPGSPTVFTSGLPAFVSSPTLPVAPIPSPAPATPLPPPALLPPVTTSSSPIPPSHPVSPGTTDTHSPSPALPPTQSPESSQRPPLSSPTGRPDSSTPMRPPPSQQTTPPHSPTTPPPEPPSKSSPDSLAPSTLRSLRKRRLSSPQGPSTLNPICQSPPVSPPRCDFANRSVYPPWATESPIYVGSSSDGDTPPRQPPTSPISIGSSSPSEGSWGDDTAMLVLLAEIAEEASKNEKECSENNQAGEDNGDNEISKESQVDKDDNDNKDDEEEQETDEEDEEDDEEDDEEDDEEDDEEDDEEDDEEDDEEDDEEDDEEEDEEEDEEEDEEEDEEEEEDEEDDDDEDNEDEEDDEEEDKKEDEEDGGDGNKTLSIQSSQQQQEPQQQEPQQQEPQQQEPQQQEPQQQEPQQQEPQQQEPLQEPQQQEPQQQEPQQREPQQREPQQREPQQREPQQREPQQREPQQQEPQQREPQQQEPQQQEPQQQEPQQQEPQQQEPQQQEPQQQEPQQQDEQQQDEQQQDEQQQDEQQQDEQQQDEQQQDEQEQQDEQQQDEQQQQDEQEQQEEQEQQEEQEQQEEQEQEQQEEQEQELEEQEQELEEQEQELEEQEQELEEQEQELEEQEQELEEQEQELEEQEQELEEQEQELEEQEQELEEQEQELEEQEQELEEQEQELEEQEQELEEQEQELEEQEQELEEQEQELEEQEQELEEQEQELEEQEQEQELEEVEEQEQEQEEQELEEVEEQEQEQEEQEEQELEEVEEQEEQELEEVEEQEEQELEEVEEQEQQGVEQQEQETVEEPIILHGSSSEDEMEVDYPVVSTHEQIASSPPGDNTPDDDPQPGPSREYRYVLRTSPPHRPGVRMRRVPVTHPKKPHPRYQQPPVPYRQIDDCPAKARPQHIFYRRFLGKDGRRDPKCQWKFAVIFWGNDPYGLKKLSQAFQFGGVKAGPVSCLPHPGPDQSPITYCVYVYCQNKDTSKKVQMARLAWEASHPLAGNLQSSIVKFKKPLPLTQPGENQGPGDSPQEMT
# Sequence of Keap1/Nrf2 (Q16236 whole entry): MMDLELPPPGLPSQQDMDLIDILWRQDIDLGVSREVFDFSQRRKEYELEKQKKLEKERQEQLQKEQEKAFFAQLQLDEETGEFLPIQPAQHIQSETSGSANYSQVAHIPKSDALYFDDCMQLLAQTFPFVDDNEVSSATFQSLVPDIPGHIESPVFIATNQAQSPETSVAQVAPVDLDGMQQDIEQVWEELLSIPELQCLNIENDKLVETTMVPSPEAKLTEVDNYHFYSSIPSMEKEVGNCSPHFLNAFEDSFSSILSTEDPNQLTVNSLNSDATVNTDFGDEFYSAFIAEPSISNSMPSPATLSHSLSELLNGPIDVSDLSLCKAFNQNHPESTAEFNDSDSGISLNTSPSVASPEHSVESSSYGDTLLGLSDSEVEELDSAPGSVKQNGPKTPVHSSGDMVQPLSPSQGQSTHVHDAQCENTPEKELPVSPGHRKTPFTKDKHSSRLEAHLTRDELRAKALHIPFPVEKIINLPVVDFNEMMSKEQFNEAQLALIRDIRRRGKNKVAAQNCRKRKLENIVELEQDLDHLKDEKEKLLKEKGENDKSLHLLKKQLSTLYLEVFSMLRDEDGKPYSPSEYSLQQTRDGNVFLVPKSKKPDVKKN
# Sequence of Keap1/Nrf2 (Q14145 whole entry): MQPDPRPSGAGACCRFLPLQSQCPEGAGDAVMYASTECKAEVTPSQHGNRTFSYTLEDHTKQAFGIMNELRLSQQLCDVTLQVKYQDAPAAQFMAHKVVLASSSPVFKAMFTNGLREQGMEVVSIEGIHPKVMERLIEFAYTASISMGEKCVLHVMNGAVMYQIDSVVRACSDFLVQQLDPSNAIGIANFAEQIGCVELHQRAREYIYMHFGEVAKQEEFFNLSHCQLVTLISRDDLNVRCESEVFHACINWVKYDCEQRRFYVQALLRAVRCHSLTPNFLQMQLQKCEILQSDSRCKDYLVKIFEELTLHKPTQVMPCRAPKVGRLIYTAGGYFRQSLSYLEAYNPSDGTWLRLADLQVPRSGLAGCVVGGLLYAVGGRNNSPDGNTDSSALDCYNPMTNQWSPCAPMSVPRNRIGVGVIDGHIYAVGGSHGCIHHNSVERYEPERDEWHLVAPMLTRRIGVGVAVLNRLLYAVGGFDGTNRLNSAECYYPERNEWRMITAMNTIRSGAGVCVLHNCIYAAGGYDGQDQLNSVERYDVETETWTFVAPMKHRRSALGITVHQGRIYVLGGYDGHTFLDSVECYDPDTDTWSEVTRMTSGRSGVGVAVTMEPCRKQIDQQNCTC
smiles,measurement,setting,value
CC[C@@]1(O)C(=O)OCc2c1cc1n(c2=O)Cc2cc3c(CN(C)C)c(O)ccc3nc2-1 [TOPOTECAN HYDROCHLORIDE],IC50,[1],> 10 µM (inactive)
same,AC50,[2],6.86 µM (active)
same,IC50,[3],> 80 µM (inactive)
same,GI50,P388,29 nM (active)
same,IC50,[4],24.6 nM (active)
same,IC50,[5],13.6 nM (active)
same,EC50,[6],549 nM (active)
same,AC50,Paired box protein Pax-8,< 260 nM (active)
same,IC50,[7],233 nM (active)
same,IC50,[8],177 nM (active)
same,EC50,Insulin-degrading enzyme [9],> 54.7 µM (inactive)
same,AC50,HeLa,17.1 µM (active)
same,EC50,BJ [10],11.3 µM (active)
same,AC50,ORF 73,2.15 µM (active)
same,GI50,P388/ADR,136 nM (active)
same,EC50,HEK293 [11],> 54.7 µM (inactive)
same,EC50,BJ [12],159 nM (active)
same,EC50,BJ [13],19.8 nM (active)
same,AC50,Keap1/Nrf2,3.7 µM (active)
same,EC50,Insulin-degrading enzyme [14],> 54.7 µM (inactive)
same,EC50,BJ [15],246 nM (active)
same,IC50,[16],1.44 nM (active)
same,GI50,SN12K1,26.7 nM (active)
same,IC50,[17],301 nM (active)
same,IC50,[18],34.2 nM (active)
same,IC50,[19],34.1 nM (active)
same,IC50,HEK293 [20],> 89.2 µM (inactive)
COc1ccc(CCNc2c(C)c(C)nc3ncnn23)cc1,IC50,Jurkat,> 80 µM (inactive)
same,AC50,[21],25.6 µM (active)
same,AC50,[22],565 nM (active)
same,AC50,INS1,2.57 µM (active)
same,IC50,Galanin receptor type 3,1.31 µM (active)
same,AC50,[23],< 260 nM (active)
same,IC50,Galanin receptor type 2,> 42 µM (not active)
same,IC50,[24],> 80 µM (inactive)
same,EC50,cells,> 29.9 µM (inactive)
